Assay results as given in the supplement of paper PMC10307832.

Experiments:
Experiment in all cases: relative viability (nuclei count vs DMSO), 5 days (fraction); higher = more cells survive
VE-821 + Alpelisib = compound: CS(=O)(=O)c1ccc(-c2cnc(N)c(C(=O)Nc3ccccc3)n2)cc1 [VE-821] + Cc1nc(NC(=O)N2CCC[C@H]2C(N)=O)sc1-c1ccnc(C(C)(C)C(F)(F)F)c1 [Alpelisib] (partner 2 µM)
Procedure, shortened: (§1)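 Relative viability equals treated-well nuclei counts divided by vehicle-well nuclei counts. Counts came from 4× images of lung cancer cell lines grown in 1536-well plates for 5 days after pin-tool dosing on the day after seeding. Dosing used one drug alone or a fixed anchor-drug dose plus five library-drug doses (not always all listed) in √10 steps, and values are medians of duplicate plates.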

VE-821 + Linsitinib = compound: CS(=O)(=O)c1ccc(-c2cnc(N)c(C(=O)Nc3ccccc3)n2)cc1 [VE-821] + C[C@]1(O)C[C@@H](c2nc(-c3ccc4ccc(-c5ccccc5)nc4c3)c3c(N)nccn32)C1 [Linsitinib] (partner 1 µM)
Procedure, shortened: as §1

VE-821 + Crizotinib = compound: CS(=O)(=O)c1ccc(-c2cnc(N)c(C(=O)Nc3ccccc3)n2)cc1 [VE-821] + C[C@@H](Oc1cc(-c2cnn(C3CCNCC3)c2)cnc1N)c1c(Cl)ccc(F)c1Cl [Crizotinib] (partner 1 µM)
Procedure, shortened: as §1

VE-821 + Olaparib = compound: CS(=O)(=O)c1ccc(-c2cnc(N)c(C(=O)Nc3ccccc3)n2)cc1 [VE-821] + O=C(c1cc(Cc2n[nH]c(=O)c3ccccc23)ccc1F)N1CCN(C(=O)C2CC2)CC1 [Olaparib] (partner 8 µM)
Procedure, shortened: as §1

| Cell Line | relative viability (VE-821 + Alpelisib; first compound 0.08 µM) | relative viability (VE-821 + Alpelisib; first compound 0.253 µM) | relative viability (VE-821 + Alpelisib; first compound 0.8 µM) | relative viability (VE-821 + Alpelisib; first compound 2.53 µM) | relative viability (VE-821 + Alpelisib; first compound 8 µM) | relative viability (VE-821 + Linsitinib; first compound 0.08 µM) | relative viability (VE-821 + Linsitinib; first compound 0.253 µM) | relative viability (VE-821 + Linsitinib; first compound 0.8 µM) | relative viability (VE-821 + Linsitinib; first compound 2.53 µM) | relative viability (VE-821 + Linsitinib; first compound 8 µM) | relative viability (VE-821 + Crizotinib; first compound 0.08 µM) | relative viability (VE-821 + Crizotinib; first compound 0.253 µM) | relative viability (VE-821 + Crizotinib; first compound 0.8 µM) | relative viability (VE-821 + Crizotinib; first compound 2.53 µM) | relative viability (VE-821 + Crizotinib; first compound 8 µM) | relative viability (VE-821 + Olaparib; first compound 0.08 µM) | relative viability (VE-821 + Olaparib; first compound 0.253 µM) | relative viability (VE-821 + Olaparib; first compound 0.8 µM) | relative viability (VE-821 + Olaparib; first compound 2.53 µM) | relative viability (VE-821 + Olaparib; first compound 8 µM) |
| --- | --- | --- | --- | --- | --- | --- | --- | --- | --- | --- | --- | --- | --- | --- | --- | --- | --- | --- | --- | --- |
| LU99A | 0.585 | 0.512 | 0.444 | 0.414 | 0.277 | 0.496 | 0.535 | 0.545 | 0.53 | 0.278 | 0.628 | 0.564 | 0.532 | 0.476 | 0.325 | 0.245 | 0.228 | 0.176 | 0.143 | 0.122 |
| LXF-289 | 1.14 | 1.06 | 1.02 | 1.2 | 1.18 | 0.992 | 0.945 | 1.06 | 1.1 | 1.07 | 0.919 | 0.812 | 0.9 | 0.933 | 0.912 | 1.3 | 1.05 | 1.24 | 1.37 | 0.903 |
| NCI-H23 | 0.734 | 0.69 | 0.512 | 0.624 | 0.416 | 0.56 | 0.639 | 0.485 | 0.706 | 0.37 | 0.788 | 0.495 | 0.501 | 0.508 | 0.272 | 0.311 | 0.245 | 0.201 | 0.195 | 0.125 |
| NCI-H322M | 0.728 |  | 0.763 | 0.881 | 0.612 | 0.933 |  | 1 | 0.93 | 0.771 | 1.03 |  | 0.858 | 0.881 | 0.502 | 0.783 | 0.842 | 0.712 | 0.653 | 0.458 |
| NCI-H358 | 1.04 | 0.999 | 0.904 | 0.838 | 0.605 | 0.812 | 0.777 | 0.723 | 1.09 | 0.469 | 0.67 | 0.636 | 0.501 | 0.588 | 0.451 | 0.69 | 0.622 | 0.698 | 0.697 | 0.665 |
| NCI-H441 | 0.902 | 0.801 | 0.682 | 0.672 | 0.744 | 0.762 | 0.666 | 0.651 | 0.821 | 0.42 | 1.21 | 0.791 | 0.866 | 0.927 | 0.723 | 0.6 | 0.643 | 0.584 | 0.469 | 0.247 |
| NCI-H460 | 0.561 | 0.394 | 0.23 | 0.279 | 0.0265 | 1.06 | 0.657 | 0.693 | 0.239 | 0.0295 | 1.5 | 0.818 | 0.588 | 0.359 | 0.186 | 0.52 | 0.378 | 0.231 | 0.138 | 0.118 |
| NCI-H520 | 0.953 | 1.1 |  | 0.883 | 0.784 | 1.09 | 0.931 |  | 1.03 | 0.755 | 0.967 | 0.826 |  | 0.867 | 0.503 | 0.321 | 0.386 | 0.307 | 0.275 | 0.228 |
| NCI-H596 | 0.486 | 0.458 | 0.39 | 0.511 | 0.413 | 1.1 | 1.18 | 1.03 | 1.15 | 0.94 | 0.977 | 1.03 | 0.904 | 1.12 | 0.934 | 0.701 | 0.714 | 0.545 | 0.555 | 0.527 |
| NCI-H647 | 1.17 | 1.07 | 0.944 | 0.901 | 0.424 | 1.44 | 1.28 | 0.829 | 0.751 | 0.493 | 1.11 | 1.05 | 1.02 | 0.935 | 0.42 | 0.504 | 0.546 | 0.413 | 0.184 | 0.101 |
| NCI-H650 | 1.19 | 1.25 | 0.932 | 1.19 | 1.1 | 0.959 | 0.843 | 0.863 | 0.949 | 0.714 | 0.969 | 0.969 | 0.675 | 0.889 | 0.642 | 0.44 | 0.432 | 0.422 | 0.482 | 0.439 |
| NCI-H661 | 0.693 | 0.705 | 0.573 | 0.765 | 0.559 | 0.539 | 0.568 | 0.481 | 0.493 | 0.4 | 1.08 | 0.942 | 1.05 | 0.997 | 1.06 | 0.766 | 0.801 | 0.671 | 0.708 | 0.687 |
| NCI-H727 | 0.687 | 0.683 | 0.585 | 0.551 | 0.425 | 0.31 | 0.337 | 0.251 | 0.335 | 0.22 | 0.866 | 0.804 | 0.898 | 0.739 | 0.394 | 0.725 | 0.694 | 0.765 | 0.682 | 0.66 |
| NCI-H838 | 1.1 | 0.955 | 0.911 | 0.966 | 0.907 | 1.13 | 0.992 | 0.913 | 1.11 | 0.913 | 0.96 | 0.721 | 0.688 | 0.875 | 0.757 | 0.866 | 0.856 | 0.765 | 0.638 | 0.365 |
| NCI-H1299 | 1.09 | 1.04 | 1.12 | 1.09 | 1.07 | 0.946 | 0.886 | 0.928 | 1.06 | 0.959 | 0.986 | 0.967 | 0.919 | 0.903 | 0.786 | 1.04 | 1.01 | 1.07 | 0.896 | 0.527 |
| NCI-H1355 | 0.911 | 0.803 | 0.562 | 0.8 | 0.531 | 0.803 | 0.789 | 0.654 | 0.767 | 0.56 | 1.22 | 1.11 | 0.993 | 1.04 | 0.768 | 0.822 | 0.719 | 0.66 | 0.716 | 0.351 |
| NCI-H1437 | 1.02 | 0.901 | 0.693 | 0.993 | 0.705 | 1.2 | 1.08 | 0.927 | 0.997 | 0.558 | 1.1 | 0.906 | 0.864 | 1.01 | 0.823 | 0.66 | 0.739 | 0.628 | 0.525 | 0.386 |
| NCI-H1651 | 1.09 | 1.08 | 0.702 | 1.01 | 0.849 | 1.01 | 0.999 | 0.847 | 0.986 | 0.737 | 0.844 | 0.914 | 0.853 | 0.837 | 0.872 | 0.187 | 0.204 | 0.19 | 0.163 | 0.165 |
| NCI-H1666 | 1.03 | 1.02 | 0.887 | 0.926 | 0.58 | 0.765 | 0.884 | 0.777 | 0.857 | 0.553 | 1.03 | 1.06 | 1.1 | 0.895 | 0.635 | 0.758 | 0.742 | 0.839 | 0.944 | 0.79 |
| NCI-H1703 | 0.379 | 0.253 | 0.279 | 0.343 | 0.233 | 1.42 | 0.51 | 0.649 | 0.93 | 0.629 | 1.04 | 0.578 | 0.688 | 0.336 | 0.248 | 0.417 | 0.506 | 0.416 | 0.462 | 0.437 |
| NCI-H1734 | 0.804 | 0.745 | 0.468 | 0.758 | 0.553 | 0.97 | 0.917 | 0.737 | 0.969 | 0.617 | 0.827 | 0.649 | 0.585 | 0.726 | 0.541 | 0.708 | 0.673 | 0.558 | 0.498 | 0.303 |
| NCI-H1755 | 1.01 | 0.887 | 0.622 | 0.946 | 0.62 | 1.05 | 0.978 | 0.795 | 0.958 | 0.898 | 0.969 | 0.841 | 0.69 | 0.835 | 0.722 | 0.928 | 0.859 | 0.854 | 0.893 | 0.719 |
| NCI-H1792 | 0.846 | 0.919 | 0.584 | 0.587 | 0.681 | 0.55 | 0.711 | 0.438 | 0.553 | 0.421 | 0.831 | 0.99 | 0.947 | 1.01 | 0.949 | 0.632 | 0.507 | 0.364 | 0.417 | 0.201 |
| NCI-H1915 | 1.13 | 1.03 | 1.06 | 1.16 | 0.941 | 1.09 | 1.16 | 1.13 | 1.18 | 0.972 | 0.892 | 0.856 | 0.883 | 0.874 | 0.846 | 0.274 | 0.274 | 0.201 | 0.202 | 0.152 |
| NCI-H1944 | 0.954 | 0.804 | 0.53 | 0.885 | 0.452 | 1.26 | 1.16 | 0.832 | 1.3 | 0.663 | 1.25 | 1.05 | 0.956 | 1.14 | 0.696 | 0.434 | 0.417 | 0.356 | 0.366 | 0.225 |
| NCI-H1975 | 0.621 | 0.598 | 0.46 | 0.534 | 0.406 | 0.932 | 0.92 | 0.876 | 0.862 | 0.658 | 1.02 | 0.944 | 0.777 | 0.758 | 0.652 | 0.883 | 0.715 | 0.672 | 0.57 | 0.334 |
| NCI-H1993 | 0.704 | 0.757 | 0.655 | 0.702 | 0.633 | 0.729 | 0.668 | 0.764 | 0.697 | 0.595 | 0.897 | 0.844 | 0.809 | 0.852 | 0.686 | 1.21 | 0.943 | 1.03 | 1.01 | 0.942 |
